The structures appear in SMILES notation. Starred links: 1 amine or outer side, 2 acyl side, 3 side chain; linkers in the order of their positions; H or OH if unused. Non-standard residues stand in square brackets, D forms with d. Residues, ends and D or L forms follow the SMILES beside them. ξ: configuration not given here. Phe(ψ(S)CH(OH)CH2N)Pro = O=C([C@@H]1CCCN1C[C@H](O)[C@H](Cc1ccccc1)N[*:1])[*:2]; Pheψ(R-CH(OH)CH2N)Pro = O=C([C@@H]1CCCN1C[C@@H](O)[C@H](Cc1ccccc1)N[*:1])[*:2]; Sta = CC(C)C[C@H](N)[C@@H](O)CC(=O)O; ξIva = CCC(C)(N)C(=O)O

In the experiment the target is Human immunodeficiency virus type 1 protease (Human immunodeficiency virus 1, UniProt Q72874). The experiment can be described thus: Inhibitory potency against HIV-1 protease.
Take `CCCN(C[C@@H](O)[C@H](Cc1ccccc1)NC(=O)[C@H](CC(N)=O)NC(=O)OCc1ccccc1)C(=O)NCC(C)C`: half-maximal inhibition (IC50) was put at 519 nM.
Regarding `CC(C)(C)NC(=O)[C@@H]1CCCCN1C[C@@H](O)[C@H](Cc1ccccc1)NC(=O)[C@H](CC(N)=O)NC(=O)c1ccc2ccccc2n1`, the 50% inhibitory concentration (IC50) – broadly, the concentration that gives 50% inhibition – is 470 nM.
In the case of `CC[C@H](C)[C@H](NC(=O)[C@@H]1CCCN1CC(O)[C@H](Cc1ccccc1)NC(=O)[C@H](CC(N)=O)NC(=O)OCc1ccccc1)C(=O)N[C@H](C(=O)OC)C(C)C` (stereo partly drawn), the IC50 was 316 nM.
As for `CC(C)(C)NC(=O)[C@@H]1CCCN1C[C@H](O)[C@H](Cc1ccccc1)NC(=O)[C@H](CC(N)=O)NC(=O)OCc1ccccc1`, the figure is 210 nM; as for `CC[C@H](C)[C@H](NC(=O)[C@@H](CC(C)C)C(O)C(O)[C@H](CC1CCCCC1)NC(=O)[C@H](Cc1c[nH]cn1)NC(=O)COc1cccc2ccccc12)C(=O)NCc1ccccn1` (stereo partly drawn), 11.2 nM.
For `CC[C@H](C)[C@H](NC(=O)[C@@H](C(C)C)C(O)C(O)[C@H](CC(C)C)NC(=O)[C@H](Cc1c[nH]cn1)NC(=O)COc1cccc2ccccc12)C(=O)NCc1ccccn1` (stereo partly drawn) the value was 11.2 nM; for `CC[C@H](C)[C@H](NC(=O)[C@@H](C(C)C)C(O)C(O)[C@H](CC1CCCCC1)NC(=O)[C@H](Cc1c[nH]cn1)NC(=O)CO)C(=O)NCc1ccccn1` (stereo partly drawn), 8.99 nM; for `CC(C)(C)OC(=O)[C@@H]1CCCN1C[C@H](O)[C@H](Cc1ccccc1)NC(=O)OCc1ccccc1`, 6500 nM.
As for `COC(=O)[C@@H](NC(=O)[C@H](CC(C)C)NC(=O)[C@@H]1CCCN1C[C@H](O)[C@H](Cc1ccccc1)NC(=O)[C@H](CC(N)=O)NC(=O)[C@H](CC(C)C)NC(=O)[C@H](CO)NC(C)=O)C(C)C` (Ac-SLN[Phe(ψ(S)CH(OH)CH2N)Pro]LV-OMe), the figure is 65 nM; as for `CC[C@H](C)[C@H](NC(=O)[C@@H](C(C)C)C(O)C(O)[C@H](Cc1c[nH]cn1)NC(=O)COc1ccccc1)C(=O)NCc1ccccn1` (stereo partly drawn), 11.2 nM.
Regarding `CCN(C[C@@H](O)[C@H](Cc1ccccc1)NC(=O)[C@H](CC(N)=O)NC(=O)OCc1ccccc1)C(=O)NCC(C)C`, the IC50 was 330 nM.
As for `CC[C@H](C)[C@H](NC(=O)[C@@H]1CCCN1C[C@@H](O)[C@H](Cc1ccccc1)NC(=O)[C@H](CC(N)=O)NC(=O)OCc1ccccc1)C(=O)N[C@@H](Cc1ccccc1)C(=O)OC`, the figure is 4 nM.
As for `CC[C@H](C)[C@H](NC(=O)[C@H](CC(C)C)C(O)C(O)[C@H](CC(C)C)NC(=O)[C@H](Cc1c[nH]cn1)NC(=O)COc1cccc2ccccc12)C(=O)NCc1ccccn1` (stereo partly drawn), the figure is 15.7 nM; as for `CC(C)(C)N(C[C@@H](O)[C@H](Cc1ccccc1)NC(=O)[C@H](CC(N)=O)NC(=O)OCc1ccccc1)C(=O)NCc1ccncc1`, 105 nM.
As to `CC(C)CNC(=O)N(C)C[C@@H](O)[C@H](Cc1ccccc1)NC(=O)[C@H](CC(N)=O)NC(=O)OCc1ccccc1`, inhibition was half-maximal at 1500 nM (IC50).
`CC(C)(C)OC(=O)N[C@@H](Cc1ccccc1)C(O)C[C@@H](Cc1ccccc1)C(=O)N[C@H]1c2ccccc2C[C@H]1O` (stereo partly drawn) had an IC50 of 252 nM. Compared with the last compound, the IC50 is about 6-fold lower.
As for `CC(C)(C)OC(=O)[C@@H]1CCCN1C[C@H](O)[C@H](Cc1ccccc1)NC(=O)[C@H](CC(N)=O)NC(=O)c1ccc2ccccc2n1`, the figure is 23 nM.
Compound `CC[C@H](C)[C@H](NC(=O)[C@@H](C(C)C)C(O)C(O)[C@H](CC1CCCCC1)NC(=O)CC1CCCCC1)C(=O)NCc1ccccn1` (stereo partly drawn) had an IC50 of 49.5 nM.
For `CC[C@H](C)[C@H](NC(=O)[C@@H](CC1CCCCC1)C(O)C(O)[C@H](CC1CCCCC1)NC(=O)[C@H](Cc1c[nH]cn1)NC(=O)COc1cccc2ccccc12)C(=O)NCc1ccccn1` (stereo partly drawn) the value was 58.5 nM.
`CC(C)CCNC(=O)N(C[C@@H](O)[C@H](Cc1ccccc1)NC(=O)[C@H](CC(N)=O)NC(=O)c1ccc2ccccc2n1)C(C)(C)C`: the midpoint of inhibition, the IC50, lay at 3 nM. This IC50 lies about 20-fold lower than the previous one.
As to `C[C@@H](NC(=O)N(C[C@@H](O)[C@H](Cc1ccccc1)NC(=O)[C@H](CC(N)=O)NC(=O)OCc1ccccc1)C(C)(C)C)c1ccccc1`, the IC50 is 6500 nM.
In turn, `CC[C@@H](C)[C@H](NC(=O)[C@@H](CC(C)C)C(O)C(O)[C@H](CC(C)C)NC(=O)C(Cc1c[nH]cn1)NC(=O)COc1cccc2ccccc12)C(=O)NCc1ccccn1` (stereo partly drawn) showed a concentration for half-maximal inhibition (IC50) of 495 nM.
For `CC(C)CNC(=O)N(C[C@@H](O)[C@H](Cc1ccccc1)NC(=O)[C@H](CC(N)=O)NC(=O)OCc1ccccc1)C(C)C` the value was 260 nM; for `CC(C)(C)N(C[C@@H](O)[C@H](Cc1ccccc1)NC(=O)[C@H](CC(N)=O)NC(=O)c1ccc2ccccc2n1)C(=O)NCc1ccncc1`, 19 nM.
As for `CSCC(NC(=O)c1ccc2ccccc2n1)C(=O)N[C@@H](Cc1ccccc1)[C@@H](O)CN1CCCCC1C(=O)NC(C)(C)C` (stereo partly drawn), the figure is 12 nM; as for `CC[C@H](C)[C@H](NC(=O)[C@@H](C(C)C)C(O)C(O)[C@H](CC1CCCCC1)NC(=O)[C@H](Cc1c[nH]cn1)NC(=O)CN)C(=O)NCc1ccccn1` (stereo partly drawn), 24.8 nM; as for `CC(C)(C)NC(=O)C1CCCCN1C[C@H](O)[C@H](Cc1ccccc1)NC(=O)C(CC#N)NC(=O)OCc1ccccc1` (stereo partly drawn), 23 nM.
As for `CC[C@H](C)[C@H](NC(=O)[C@@H](C(C)C)C(O)C(O)[C@H](CC1CCCCC1)NC(=O)[C@H](Cc1c[nH]cn1)NC(=O)COc1ccccc1)C(=O)NCc1ccccn1` (stereo partly drawn), the figure is 4.5 nM.
The compound `CC[C@H](C)[C@H](NC(=O)[C@@H]1CCCN1CC(O)[C@H](Cc1ccccc1)NC(=O)[C@H](CC(N)=O)NC(=O)c1ccc2ccccc2n1)C(=O)N[C@@H](Cc1ccccc1)C(=O)OC` (stereo partly drawn) showed a 50% inhibitory concentration (IC50) of 2.3 nM.
In the case of `CC[C@H](C)[C@H](NC(=O)[C@@H](Cc1ccccc1)[C@@H](O)[C@H](O)[C@H](Cc1ccccc1)NC(=O)[C@H](Cc1c[nH]cn1)NC(=O)COc1cccc2ccccc12)C(=O)NCc1ccccn1`, half-maximal inhibition (IC50) required 27 nM.
Turning to `COC(=O)[C@@H](NC(=O)[C@H](CC(C)C)NC(=O)[C@@H]1CCCN1C[C@@H](O)[C@H](Cc1ccccc1)NC(=O)[C@H](CC(N)=O)NC(=O)[C@H](CC(C)C)NC(=O)[C@H](CO)NC(C)=O)C(C)C` (Ac-SLN[Pheψ(R-CH(OH)CH2N)Pro]LV-OMe), 3.4 nM corresponded to half-maximal inhibition (IC50).
For `CCC(C)(NC(=O)[C@@H](NC(=O)[C@@H](NC(=O)C[C@H](O)[C@H](CC(C)C)NC(=O)[C@H](C)NC(=O)C[C@H](O)[C@@H](N)CC(C)C)C(C)C)C(C)C)C(=O)O` (stereo partly drawn) (H-[Sta]A[Sta]VV[ξIva]-OH) the value was 12000 nM; for `CC(C)(C)NC(=O)[C@@H]1C[C@@H]2CCCC[C@@H]2CN1C[C@H](O)[C@H](Cc1ccccc1)NC(=O)[C@H](CC(N)=O)NC(=O)OCc1ccccc1`, 2.7 nM; for `CCCCN(C[C@@H](O)[C@H](Cc1ccccc1)NC(=O)[C@H](CC(N)=O)NC(=O)c1ccc2ccccc2n1)C(=O)NCC(C)C`, 126 nM.
`CC(C)(C)N(C[C@@H](O)[C@H](Cc1ccccc1)NC(=O)[C@H](CC(N)=O)NC(=O)OCc1ccccc1)C(=O)NCc1ccccc1` gave a 50% inhibitory concentration (IC50) of 19 nM.
For `CC[C@H](C)CNC(=O)[C@@H](C(C)C)C(O)C(O)[C@H](CC(C)C)NC(=O)[C@H](Cc1c[nH]cn1)NC(=O)[C@H](Cc1ccccc1)NC(=O)OC(C)(C)C` (stereo partly drawn) the value was 809 nM; for `CC[C@H](C)CNC(=O)[C@@H](C(C)C)C(O)C(O)[C@H](Cc1c[nH]cn1)NC(=O)COc1ccccc1` (stereo partly drawn), 809 nM; for `CC(C)(C)NC(=O)[C@@H]1C[C@@H]2CCCC[C@@H]2CN1C[C@@H](O)[C@H](Cc1ccccc1)NC(=O)[C@H](CC(N)=O)NC(=O)OCc1ccccc1`, 316 nM.
The compound `CC(C)(C)OC(=O)[C@@H]1CCCN1CC(O)[C@H](Cc1ccccc1)NC(=O)[C@H](CC(N)=O)NC(=O)OCc1ccccc1` (stereo partly drawn) had a half-inhibitory concentration (IC50) of 140 nM. Against the preceding compound, the IC50 is about 2.3-fold lower.
As for `CC[C@H](C)[C@H](NC(=O)[C@@H](C(C)C)C(O)C(O)[C@H](CC1CCCCC1)NC(=O)[C@H](Cc1c[nH]cn1)NC(=O)COc1cccc2ccccc12)C(=O)NCc1ccccn1` (stereo partly drawn), the figure is 1.8 nM.
As to `CC[C@H](C)[C@H](NC(=O)[C@@H]1CCCN1C[C@@H](O)[C@H](Cc1ccccc1)NC(=O)[C@H](CC(N)=O)NC(=O)OCc1ccccc1)C(=O)N[C@H](C(=O)OC)C(C)C`, inhibition was half-maximal at 13 nM (IC50).
As for `CC(C)(C)N(C[C@@H](O)[C@H](Cc1ccccc1)NC(=O)[C@H](CC(N)=O)NC(=O)c1ccc2ccccc2n1)C(=O)NCc1ccccc1`, the figure is 3 nM.
For `CC(C)CNC(=O)N(C[C@@H](O)[C@H](Cc1ccccc1)NC(=O)[C@H](CC(N)=O)NC(=O)OCc1ccccc1)C(C)(C)C`, the IC50 is 35 nM. This IC50 lies about 12-fold higher than the previous one.
Turning to `CC(C)(C)N(C[C@@H](O)[C@H](Cc1ccccc1)NC(=O)[C@H](CC(N)=O)NC(=O)OCc1ccccc1)C(=O)NCC1CCCCC1`, the midpoint of inhibition, the IC50, lay at 29 nM. The IC50 values of the last two compounds are within 1.5-fold of each other.
In the case of `CCCCN(C[C@@H](O)[C@H](Cc1ccccc1)NC(=O)[C@H](CC(N)=O)NC(=O)OCc1ccccc1)C(=O)NCC(C)C`, the IC50 is 942 nM. This IC50 is about 32-fold higher than that of the compound before.
The compound `COC(=O)[C@@H](NC(=O)[C@H](CC(C)C)NC(=O)[C@@H]1CCCN1C[C@H](O)[C@H](Cc1ccccc1)NC(=O)[C@H](CC(N)=O)NC(=O)OC(C)(C)C)C(C)C` showed an IC50 of 849 nM.
As for `CC(C)(C)NC(=O)C1CCCCN1C[C@H](O)[C@H](Cc1ccccc1)NC(=O)C(CC(N)=O)NC(=O)c1ccc2ccccc2n1` (stereo partly drawn), the IC50 is 2 nM.
For `CC(C)CNC(=O)N(C[C@@H](O)[C@H](Cc1ccccc1)NC(=O)[C@H](CC(N)=O)NC(=O)c1ccc2ccccc2n1)C(C)(C)C` the value was 6.01 nM.
As for `CC(C)CCNC(=O)N(C[C@@H](O)[C@H](Cc1ccccc1)NC(=O)[C@H](CC(N)=O)NC(=O)OCc1ccccc1)C(C)(C)C`, the figure is 13 nM.
For `CC(C)(C)N(C[C@@H](O)[C@H](Cc1ccccc1)NC(=O)[C@H](CC(N)=O)NC(=O)c1ccc2ccccc2n1)C(=O)NCC1CCCCC1`, the concentration for half-maximal inhibition (IC50) is 5 nM. This IC50 is about 2.6-fold lower than that of the compound before.
For `CC[C@H](C)[C@H](NC(=O)[C@@H](C(C)C)C(O)C(O)[C@H](CC(C)C)NC(=O)[C@H](Cc1c[nH]cn1)NC(=O)[C@H](Cc1ccccc1)NC(=O)OC(C)(C)C)C(=O)NCc1ccccn1` (stereo partly drawn) the value was 63 nM.
Consider `CC[C@H](C)[C@H](NC(=O)[C@@H]1C[C@@H]2CCCC[C@@H]2CN1C[C@@H](O)[C@H](Cc1ccccc1)NC(=O)[C@H](CC(N)=O)NC(=O)OCc1ccccc1)C(=O)N[C@H](C(=O)OC)C(C)C`, for which the IC50 was 316 nM.
In turn, `C[C@H](NC(=O)N(C[C@@H](O)[C@H](Cc1ccccc1)NC(=O)[C@H](CC(N)=O)NC(=O)OCc1ccccc1)C(C)(C)C)c1ccccc1` gave an IC50 of 5090 nM.

The record behind these values is ChEMBL document CHEMBL1126565, “Three-dimensional QSAR of human immunodeficiency virus (I) protease inhibitors. 1. A CoMFA study employing experimentally-determined alignment rules” (J Med Chem, 1993).
